Measured values as given in patent publication US8207172B2 (Bayer Intellectual Property GmbH, priority 2004, dated 2012).

Legend:
[1] = tested on: BT474 (human breast carcinoma); assay: In vitro tumor cell proliferation assay (Cell Titer-Glo luminescent cell viability), BT474; type: cell-based; conditions: BT-474, 72 h, BT474 cells, 72 hours of drug exposure, ATP luminescence readout, read-out: IC50, anti-proliferative activity (inhibition of cell proliferation)
How it was run: (§1)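 A431 or BT474 cells were exposed 72 h at 37°C to serially diluted compounds (final 100 μM down to 64 pM, 0.1% DMSO). Viable cells were read by ATP luminescence (CellTiter-Glo) and IC50 values derived.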

[2] = tested on: A431 cells (human epidermoid carcinoma); assay: In vitro tumor cell proliferation assay (Cell Titer-Glo luminescent cell viability), A431; type: cell-based; conditions: A-431, 72 h, 72 hours of drug exposure, ATP luminescence readout, read-out: IC50, anti-proliferative activity (inhibition of cell proliferation)
How it was run: as §1

IC50 [1] [µM] | IC50 [2] [µM] | SMILES
≤ 5 | ≤ 5 | OC[C@H]1CCCN1CCn1cc2c(n1)CCc1c-2sc2ncnc(Nc3ccc(F)c(Cl)c3)c12 [Example 29, [(2R)-1-(2-{6-[(3-chloro-4-fluorophenyl)amino]-4,5-dihydro-2H-pyrimido[5′,4′:4,5]thieno[2,3-e]indazol-2-yl}ethyl)pyrrolidin-2-yl]methanol]
≤ 5 | ≤ 5 | O[C@H]1CCN(CCn2cc3c(n2)CCc2c-3sc3ncnc(Nc4ccc(F)c(Cl)c4)c23)C1 [Example 30, (3S)-1-(2-{6-[(3-chloro-4-fluorophenyl)amino]-4,5-dihydro-2H-pyrimido[5′,4′:4,5]thieno[2,3-e]indazol-2-yl}ethyl)pyrrolidin-3-ol]
≤ 5 | ≤ 5 | COC[C@@H]1CCCN1CCn1cc2c(n1)CCc1c-2sc2ncnc(Nc3ccc(F)c(Cl)c3)c12 [Example 31, N-(3-chloro-4-fluorophenyl)-2-{2-[(2S)-2-(methoxymethyl)pyrrolidin-1-yl]ethyl}-4,5-dihydro-2H-pyrimido[5′,4′:4,5]thieno[2,3-e]indazol-6-amine]
≤ 5 | ≤ 5 | OC[C@@H]1CCCN1CCn1cc2c(n1)CCc1c-2sc2ncnc(Nc3ccc(F)c(Cl)c3)c12 [Example 32, [(2S)-1-(2-{6-[(3-chloro-4-fluorophenyl)amino]-4,5-dihydro-2H-pyrimido[5′,4′:4,5]thieno[2,3-e]indazol-2-yl}ethyl)pyrrolidin-2-yl]methanol]
≤ 5 | ≤ 5 | O[C@@H]1CCN(CCn2cc3c(n2)CCc2c-3sc3ncnc(Nc4ccc(F)c(Cl)c4)c23)C1 [Example 33, (3R)-1-(2-{6-[(3-chloro-4-fluorophenyl)amino]-4,5-dihydro-2H-pyrimido[5′,4′:4,5]thieno[2,3-e]indazol-2-yl}ethyl)-pyrrolidin-3-ol]
≤ 5 | ≤ 5 | COC(=O)[C@@H]1CCCN1CCn1cc2c(n1)CCc1c-2sc2ncnc(Nc3ccc(F)c(Cl)c3)c12 [Example 34, methyl 1-(2-{6-[(3-chloro-4-fluorophenyl)amino]-4,5-dihydro-2H-pyrimido[5′,4′:4,5]thieno[2,3-e]indazol-2-yl}ethyl)-L-prolinate]
≤ 5 | ≤ 5 | Fc1ccc(Nc2ncnc3sc4c(c23)CCc2nn(CCN3CCSCC3)cc2-4)cc1Cl [Example 35, N-(3-chloro-4-fluorophenyl)-2-(2-thiomorpholin-4-ylethyl)-4,5-dihydro-2H-pyrimido[5′,4′:4,5]thieno[2,3-e]indazol-6-amine]
≤ 5 | ≤ 5 | CCN1CCN(CCn2cc3c(n2)CCc2c-3sc3ncnc(Nc4ccc(F)c(Cl)c4)c23)CC1 [Example 36, N-(3-chloro-4-fluorophenyl)-2-[2-(4-ethylpiperazin-1-yl)ethyl]-4,5-dihydro-2H-pyrimido[5′,4′:4,5]thieno[2,3-e]indazol-6-amine]
≤ 5 | ≤ 5 | Cc1nccn1CCn1cc2c(n1)CCc1c-2sc2ncnc(Nc3ccc(F)c(Cl)c3)c12 [Example 37, N-(3-chloro-4-fluorophenyl)-2-[2-(2-methyl-1H-imidazol-1-yl)ethyl]-4,5-dihydro-2H-pyrimido[5′,4′:4,5]thieno[2,3-e]indazol-6-amine]
≤ 5 | ≤ 5 | CCc1nccn1CCn1cc2c(n1)CCc1c-2sc2ncnc(Nc3ccc(F)c(Cl)c3)c12 [Example 38, N-(3-chloro-4-fluorophenyl)-2-[2-(2-ethyl-1H-imidazol-1-yl)ethyl]-4,5-dihydro-2H-pyrimido[5′,4′:4,5]thieno[2,3-e]indazol-6-amine]
≤ 1 | ≤ 50 | CN1CCN(CCn2cc3c(n2)CCc2c-3sc3ncnc(Nc4ccc5c(cnn5Cc5ccccc5)c4)c23)CC1 [Example 39, N-(1-benzyl-1H-indazol-5-yl)-2-[2 (4-methylpiperazin-1-yl)ethyl]-4,5-dihydro-2H-pyrimido[5′,4′:4,5]thieno[2,3-e]indazol-6-amine]
≤ 5 | ≤ 5 | Fc1ccc(Nc2ncnc3sc4c(c23)CCc2n[nH]cc2-4)cc1Cl [Example 40, N-(3-chloro-4-fluorophenyl)-4,5-dihydro-2H-pyrimido[5′,4′:4,5]thieno[2,3-e]indazol-6-amine]
≤ 5 | ≤ 5 | CCCc1nccn1CCn1cc2c(n1)CCc1c-2sc2ncnc(Nc3ccc(F)c(Cl)c3)c12 [Example 41, N-(3-chloro-4-fluorophenyl)-2-[2-(2-propyl-1H-imidazol-1-yl)ethyl]-4,5-dihydro-2H-pyrimido[5′,4′:4,5]thieno[2,3-e]indazol-6-amine]
≤ 5 | ≤ 5 | CC(C)c1nccn1CCn1cc2c(n1)CCc1c-2sc2ncnc(Nc3ccc(F)c(Cl)c3)c12 [Example 42, N-(3-chloro-4-fluorophenyl)-2-[2-(2-isopropyl-1H-imidazol-1-yl)ethyl]-4,5-dihydro-2H-pyrimido[5′,4′:4,5]thieno[2,3-e]indazol-6-amine]
≤ 1 | ≤ 5 | OC[C@H](O)Cn1cc2c(n1)CCc1c-2sc2ncnc(Nc3ccc(F)c(Cl)c3)c12 [Example 44, (R)-3-[6-(3-Chloro-4-fluoro-phenylamino)-4,5-dihydro-10-thia-2,3,7,9-tetraaza-cyclopenta[a]fluoren-2-yl}-propane-1,2-diol]
≤ 1 | ≤ 5 | CN1CCN(CCn2cc3c(n2)CCc2c-3sc3ncnc(Nc4ccc(Cl)c(Cl)c4)c23)CC1 [Example 45, N-(3,4-dichlorophenyl)-2-[2-(4-methylpiperazin-1-yl)ethyl]-4,5-dihydro-2H-pyrimido[5′,4′:4,5]thieno[2,3-e]indazol-6-amine]
≤ 5 | ≤ 50 | CN1CCN(CCn2cc3c(n2)CCc2c-3sc3ncnc(Nc4ccc(O)c(Cl)c4)c23)CC1 [Example 46, 2-chloro-4-({2-[2-(4-methylpiperazin-1-yl)ethyl]-4,5-dihydro-2H-pyrimido[5′,4′:4,5]thieno[2,3-e]indazol-6-yl}amino)phenol]
≤ 5 | ≤ 50 | CN1CCN(CCn2cc3c(n2)CCc2c-3sc3ncnc(Nc4ccc(N5CCOCC5)c(Cl)c4)c23)CC1 [Example 48, N-(3-chloro-4-morpholin-4-ylphenyl)-2-[2-(4-methylpiperazin-1-yl)ethyl]-4,5-dihydro-2H-pyrimido[5′,4′:4,5]thieno[2,3-e]indazol-6-amine]
≤ 1 | ≤ 5 | Cc1ccc(Oc2ccc(Nc3ncnc4sc5c(c34)CCc3nn(CCN4CCN(C)CC4)cc3-5)cc2C)cn1 [Example 49, N-{3-methyl-4-[(6-methylpyridin-3-yl)oxy]phenyl}-2-[2-(4-methylpiperazin-1-yl)ethyl]-4,5-dihydro-2H-pyrimido[5′,4′:4,5]thieno[2,3-e]indazol-6-amine]
≤ 5 | ≤ 5 | CN1CCN(CCn2cc3c(n2)CCc2c-3sc3ncnc(Nc4ccc(Br)c(Cl)c4)c23)CC1 [Example 50, N-(4-bromo-3-chlorophenyl)-2-[2-(4-methylpiperazin-1-yl)ethyl]-4,5-dihydro-2H-pyrimido[5′,4′:4,5]thieno[2,3-e]indazol-6-amine]
≤ 50 | ≤ 5 | C#Cc1cccc(Nc2ncnc3sc4c(c23)CCc2nn(CCN3CCN(C)CC3)cc2-4)c1 [Example 51, N-(3-ethynylphenyl)-2-[2-(4-methylpiperazin-1-yl)ethyl]-4,5-dihydro-2H-pyrimido[5′,4′:4,5]thieno[2,3-e]indazol-6-amine]
≤ 5 | ≤ 50 | COc1ccc(Nc2ncnc3sc4c(c23)CCc2nn(CCN3CCN(C)CC3)cc2-4)cc1Cl [Example 52, N-(3-chloro-4-methoxyphenyl)-2-[2-(4-methylpiperazin-1-yl)ethyl]-4,5-dihydro-2H-pyrimido[5′,4′:4,5]thieno[2,3-e]indazol-6-amine]
≤ 1 | ≤ 5 | CN1CCN(CCn2cc3c(n2)CCc2c-3sc3ncnc(Nc4ccc(OC(F)(F)F)c(Cl)c4)c23)CC1 [Example 53, N-[3-chloro-4-(trifluoromethoxy)phenyl]-2-[2-(4-methylpiperazin-1-yl)ethyl]-4,5-dihydro-2H-pyrimido[5′,4′:4,5]thieno[2,3-e]indazol-6-amine]
≤ 1 | ≤ 5 | CN1CCN(CCn2cc3c(n2)CCc2c-3sc3ncnc(Nc4ccc(OCc5ccccc5)c(Cl)c4)c23)CC1 [Example 54, N-[4-(benzyloxy)-3-chlorophenyl]-2-[2-(4-methylpiperazin-1-yl)ethyl]-4,5-dihydro-2H-pyrimido[5′,4′:4,5]thieno[2,3-e]indazol-6-amine]
≤ 1 | ≤ 5 | OCCn1cc2c(n1)CCc1c-2sc2ncnc(Nc3ccc(OCc4cccc(F)c4)c(Cl)c3)c12 [Example 56, 2-[6-({3-chloro-4-[(3-fluorobenzyl)oxy]phenyl}amino)-4,5-dihydro-2H-pyrimido[5′,4′:4,5]thieno[2,3-e]indazol-2-yl]ethanol]
≤ 1 | ≤ 5 | CS(=O)(=O)OCCn1cc2c(n1)CCc1c-2sc2ncnc(Nc3ccc(OCc4cccc(F)c4)c(Cl)c3)c12 [Example 57, 2-[6-({3-chloro-4-[(3-fluorobenzyl)oxy]phenyl}amino)-4,5-dihydro-2H-pyrimido[5′,4′:4,5]thieno[2,3-e]indazol-2-yl]ethyl methanesulfonate]

SMILES | IC50 [1] [µM] | IC50 [2] [µM]
CC(C)(C)[Si](C)(C)OCCn1cc2c(n1)CCc1c-2sc2ncnc(Nc3ccc(OCc4cccc(F)c4)c(Cl)c3)c12 [Example 55, 2-(2-{[tert-butyl(dimethyl)silyl]oxy}ethyl)N-{3-chloro-4-[(3-fluorobenzyl)oxy]phenyl}-4,5-dihydro-2H-pyrimido[5′,4′:4,5]thieno[2,3-e]indazol-6-amine] | ≤ 5 | ≤ 50
